Publication PMC3089059 (Bioorganic & medicinal chemistry, 2011)
pIC50, pKd: −log10 of the molar value.

Columns and labels:
[1] = biological target: T1, JNK1 (Homo sapiens, UniProt P45983); assay: DELFIA assay, displacement of biotinylated pepJIP1 from GST-JNK1; type: binding
[2] = biological target: T1, JNK1; type: biochemical
[3] = Microsomal stability assay; type: in vitro ADME; details: after 60 min of incubation in rat microsomal preparations, 4 μM, NADPH
[4] = Plasma stability assay; type: in vitro ADME; details: after 60 min of incubation in rat plasma, 1 μM, 37 °C
[5] = biological target: JNK1 (Homo sapiens, UniProt P45984); assay: biochemical; type: binding; details: ITC
JNK1 (Homo sapiens, UniProt P45984), sequence (P45984 whole entry): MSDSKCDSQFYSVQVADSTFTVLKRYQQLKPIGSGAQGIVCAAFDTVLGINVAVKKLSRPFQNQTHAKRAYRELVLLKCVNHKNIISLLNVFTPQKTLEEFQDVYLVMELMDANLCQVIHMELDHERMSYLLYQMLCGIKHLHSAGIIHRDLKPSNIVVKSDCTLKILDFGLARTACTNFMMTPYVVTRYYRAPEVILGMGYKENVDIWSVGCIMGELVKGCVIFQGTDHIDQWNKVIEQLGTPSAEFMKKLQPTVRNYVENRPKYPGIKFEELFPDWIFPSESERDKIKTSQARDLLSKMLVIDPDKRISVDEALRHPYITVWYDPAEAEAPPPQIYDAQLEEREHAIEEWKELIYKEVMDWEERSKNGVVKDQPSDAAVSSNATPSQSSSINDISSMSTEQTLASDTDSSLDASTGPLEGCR

T1 sequence (P45983 whole entry): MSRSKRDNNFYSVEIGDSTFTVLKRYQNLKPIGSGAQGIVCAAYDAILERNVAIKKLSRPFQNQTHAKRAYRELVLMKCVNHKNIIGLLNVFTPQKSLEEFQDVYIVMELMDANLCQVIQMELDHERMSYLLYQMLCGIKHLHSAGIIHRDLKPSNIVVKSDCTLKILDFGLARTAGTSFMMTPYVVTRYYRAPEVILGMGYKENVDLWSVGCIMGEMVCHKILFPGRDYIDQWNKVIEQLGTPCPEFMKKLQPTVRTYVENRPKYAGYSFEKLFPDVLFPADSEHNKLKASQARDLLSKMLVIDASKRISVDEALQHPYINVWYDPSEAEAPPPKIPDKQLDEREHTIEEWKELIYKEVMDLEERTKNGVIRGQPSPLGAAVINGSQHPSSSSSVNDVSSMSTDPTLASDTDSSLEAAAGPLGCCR

Row | SMILES | JNK1 inhibitory activity (in words) [2] | degraded [3] [%] | plasma stability [4] | other results
1 | Cc1sc(NC(=O)Cc2cccc3ccccc23)c(C(N)=O)c1C [Compound 1, 4,5-dimethyl-2-(2-(naphthalen-1-yl)acetamido)thiophene-3-carboxamide] | – | – | – | pIC50 [1]: 4.80
2 | O=C(Cc1cccc2ccccc12)Nc1sccc1C(=O)O [Compound 5a] | significant loss of JNK1 inhibitory activity | – | – | –
3 | COC(=O)c1ccsc1NC(=O)Cc1cccc2ccccc12 [Compound 5b] | significant loss of JNK1 inhibitory activity | – | – | –
4 | N#Cc1ccsc1NC(=O)Cc1cccc2ccccc12 [Compound 5c] | significant loss of JNK1 inhibitory activity | – | – | –
5 | NC(=O)c1ccc(NC(=O)Cc2cccc3ccccc23)s1 [Compound 5f] | completely inactive | – | – | –
6 | NC(=O)c1ccsc1NC(=O)Cc1csc2ccccc12 [Compound 25] | – | 85 | basically unaltered | mode of inhibition versus ATP (Lineweaver-Burk) ([2]; increasing ATP concentrations): ATP competitive inhibitor; mode of inhibition versus substrate ATF2 (Lineweaver-Burk) ([2]; increasing substrate ATF2 concentrations): mixed substrate competitive inhibitor; pKd ([5]; in presence of ATP (saturating non-hydrolizable ATP)): 5.96; pKd ([5]; in presence of pepJIP1 (saturating)): 5.51
7 | NC(=O)c1ccsc1NC(=O)Cc1ccccc1Cl [Compound 26] | – | 70 | basically unaltered | –
8 | NC(=O)c1ccsc1NC(=O)Cc1cccc(Br)c1 [Compound 33] | – | 74 | basically unaltered | –
